In patent US8524773B2, “Utilization of dialkylfumarates” (Biogen Idec International GmbH, priority 1998, dated 2013):
Structures can show the parent of a compound that is named as a salt.

Assays:
haemagglutination [1] = experiment: in vitro haemagglutination; conditions: compared with cyclosporine
haemagglutination [2] = experiment: in vivo haemagglutination; conditions: compared with cyclosporine
Ehrlich ascites tumour = conditions: mice; cited from earlier work
[3] = system: human mononuclear cells of periphere blood (PBMC cells); experiment: endotoxin-stimulated TNF-α secretion in PBMC cells; assay type: cell-based
isolated monocytes = experiment: endotoxin-stimulated TNF-α secretion in isolated monocytes; assay type: cell-based, human

In the case of `O=C(O)/C=C/C(=O)O` [fumaric acid], the “effect on in vitro haemagglutination” value (haemagglutination [1]) is given as “comparable to that of cyclosporine”, the “effect on in vivo haemagglutination” value (haemagglutination [2]) is given as “comparable to that of cyclosporine” and the “growth of the Ehrlich ascites tumour” value (Ehrlich ascites tumour) is given as “inhibits the growth”.
With `COC(=O)/C=C/C(=O)O` [methyl hydrogen fumarate] the “endotoxin-stimulated TNF-α secretion” value [3] was “initially increases” and the “endotoxin-stimulated TNF-α secretion” value (isolated monocytes) was “initially increases”.
